Paper PMC8564858, “Flavonoid-based inhibitors of the Phi-class glutathione transferase from black-grass to combat multiple herbicide resistance” (Organic & Biomolecular Chemistry, 2021)

Key:
AmGSTF1 [1] = assay: CDNB assay: inhibition of AmGSTF1-catalysed glutathionylation of CDNB; assay type: biochemical, Alopecurus myosuroides; settings: for CDNB Assay % Inhibition: three replicate measurements
AmGSTF1 [2] = assay: Thermal shift assay; assay type: binding, Alopecurus myosuroides; settings: difference in melting temperature compared to no ligand

Compound	CDNB Assay % Inhibition (AmGSTF1 [1]; 10 µM compound) [%]	CDNB Assay % Inhibition (AmGSTF1 [1]; 100 µM compound) [%]	Thermal Shift Assay ∆Tm (AmGSTF1 [2]; 1 µM)	Thermal Shift Assay ∆Tm (AmGSTF1 [2]; 10 µM)	Thermal Shift Assay ∆Tm (AmGSTF1 [2]; 100 µM)	Inhibitory activity toward AmGSTF1 in the CDNB assay (in words) (AmGSTF1 [1])	CDNB Assay % Inhibition (AmGSTF1 [1]; 1 µM compound) [%]
COc1cc(OC)c2c(=O)cc(C(=O)Nc3ccccc3)oc2c1 [16a]	26	49	0.17	0.03	0.03		
COc1cc(NC(=O)c2cc(=O)c3c(OC)cc(OC)cc3o2)cc(OC)c1 [16b]	19	56	0.20	0.50	0.13		
COc1cc(OC)c2c(=O)cc(C(=O)Nc3ccc(C)cc3)oc2c1 [16c]	33	64	0.20	0.10	0.33		
COc1cc(OC)c2c(=O)cc(N3CCN(C)CC3)oc2c1 [17a]		16	0	-0.03	0.20		
COc1cc(OC)c2c(=O)cc(N3CCOCC3)oc2c1 [17b]	0	37	0.06	0.23	0.20		
COc1cc(OC)c2c(=O)cc(N3CCCCC3)oc2c1 [17c]	12	67	0.23	0.13	0.30		
COc1cc(OC)c2c(=O)cc(NCCCO)oc2c1 [17d]		12	0.23	0.17	0.07		
COc1cc(OC)c2c(=O)cc(-c3ccccc3)oc2c1 [18a]	20	70	0.23	0.33	0.3		
COc1cc(OC)c2c(=O)cc(-c3ccc(F)cc3)oc2c1 [18b]	23	78	0.17	0.33	0.27		
COc1ccc(-c2cc(=O)c3c(OC)cc(OC)cc3o2)cc1 [18c]	15	100	0.23	0.17	0.70		
COc1cc(OC)c2c(=O)cc(-c3cccc(-c4ccccc4)c3)oc2c1 [18d]	12	87	0.13	0.13	-0.1		
CCc1ccc(-c2cc(=O)c3c(OC)cc(OC)cc3o2)cc1 [18e]	11	80		0.10	0		
COc1cccc(-c2cc(=O)c3c(OC)cc(OC)cc3o2)c1 [18f]	15	79	0.33	0.2	-0.17		
COc1cc(OC)c2c(=O)cc(-c3ccc(OC)c(OC)c3)oc2c1 [18g]	11	100	0.30	-0.03	0.17		
COc1cc(OC)c2c(=O)cc(-c3ccc4c(c3)OCO4)oc2c1 [18h]	12	33	0.27	0.17	0.33		
COC(=O)c1ccc(-c2cc(=O)c3c(OC)cc(OC)cc3o2)cc1 [18i]	20	58	0.27	0.30	0.27		
COc1cc(OC)c2c(=O)cc(-c3ccccc3C)oc2c1 [18j]	9	36	-0.13	-0.03	-0.03		
COc1cc(OC)c2c(=O)cc(-c3cccc(S(C)(=O)=O)c3)oc2c1 [18k]	11	60	0.20	0.10	0.30		
O=c1c(-c2ccc(O)cc2)coc2cc(O)cc(O)c12 [compound 5, reference compound]		47					
COc1ccc(-c2coc3cc(O)ccc3c2=O)cc1 [compound 6, reference compound]		41					
O=C1c2c(O)cc(O)cc2O[C@H](c2ccc(O)c(O)c2)[C@H]1O [compound 8, reference compound]		18					

Compound	CDNB Assay % Inhibition (AmGSTF1 [1]; 10 µM compound) [%]	CDNB Assay % Inhibition (AmGSTF1 [1]; 100 µM compound) [%]	Thermal Shift Assay ∆Tm (AmGSTF1 [2]; 1 µM)	Thermal Shift Assay ∆Tm (AmGSTF1 [2]; 10 µM)	Thermal Shift Assay ∆Tm (AmGSTF1 [2]; 100 µM)	Inhibitory activity toward AmGSTF1 in the CDNB assay (in words) (AmGSTF1 [1])	CDNB Assay % Inhibition (AmGSTF1 [1]; 1 µM compound) [%]
Oc1cc(O)c2c(c1)OC(c1ccc(O)c(O)c1)C(O)C2 (centres unmarked) [compound 10, catechin, reference compound]		0				no inhibition	
Cc1cc(=O)c2c(O)cc(O)cc2o1 [compound 12]		63				reduced inhibitory activity	
O=C(Oc1cc(O)c2c(=O)cc(-c3ccccc3)oc2c1)c1ccccc1 [compound 27]		4					
CC(=O)Oc1cc(O)c2c(=O)cc(-c3ccccc3)oc2c1 [compound 28]		10					
CCCCCC(=O)Oc1cc(O)c2c(=O)cc(-c3ccccc3)oc2c1 [compound 29]		6					
O=c1cc(-c2ccccc2)oc2cc(OCc3ccccc3)cc(O)c12 [compound 30]		53					
O=c1cc(-c2ccccc2)oc2cc(OCC3CC3)cc(O)c12 [compound 31]		76					
O=c1cc(-c2ccccc2)oc2cc(OCC3CCCC3)cc(O)c12 [compound 32]		80					
CCCCCOc1cc(O)c2c(=O)cc(-c3ccccc3)oc2c1 [compound 33]		87					
O=c1cc(-c2ccccc2)oc2cc(OCC3CCCCO3)cc(O)c12 (centres unmarked) [compound 34]		28					
O=c1cc(-c2ccccc2)oc2cc(OCc3cccnc3)cc(O)c12 [compound 35]		87					
COc1ccc(CNc2cc(O)c3c(=O)cc(-c4ccccc4)oc3c2)cc1 [compound 36]		45					
O=c1cc(-c2ccccc2)oc2cc(N3CCCC3)cc(O)c12 [compound 37]		46					
O=c1cc(-c2ccccc2)oc2cc(N3CCCCC3)cc(O)c12 [compound 38]		88					
O=c1cc(-c2ccccc2)oc2cc(N3CCOCC3)cc(O)c12 [compound 39]	56	100					
COc1cc(OCC(=O)O)c2c(=O)cc(-c3ccccc3)oc2c1 [compound 40]							23
COc1cc(OC(C(=O)O)C(C)C)c2c(=O)cc(-c3ccccc3)oc2c1 (centres unmarked) [compound 47]							7
COc1cc(OC(C(=O)O)c2ccccc2)c2c(=O)cc(-c3ccccc3)oc2c1 (centres unmarked) [compound 48]							16
COc1cc(OC(C(=O)O)c2ccc(Cl)cc2)c2c(=O)cc(-c3ccccc3)oc2c1 (centres unmarked) [compound 49]							27
COc1cc(OC(Cc2ccccc2)C(=O)O)c2c(=O)cc(-c3ccccc3)oc2c1 (centres unmarked) [compound 50]							8
